For seven cell lines, relative viability results are on record in the supplement of paper PMC10307832.

Common to all, as to assay: relative viability (nuclei count vs DMSO), 5 days (fraction); higher = more cells survive
Compound in the assay “Bleomycin + Vorinostat”: CC1=C(N=C(N=C1N)[C@H](CC(=O)N)NC[C@@H](C(=O)N)N)C(=O)N[C@@H]([C@H](C2=CN=CN2)OC3C(C(C(C(O3)CO)O)O)OC4C(C(C(C(O4)CO)O)OC(=O)N)O)C(=O)N[C@H](C)[C@H]([C@H](C)C(=O)N[C@@H]([C@@H](C)O)C(=O)NCCC5=NC(=CS5)C6=NC(=CS6)C(=O)NCCC[S+](C)C)O [Bleomycin] + O=C(CCCCCCC(=O)Nc1ccccc1)NO [Vorinostat] (partner 1 µM)
Particulars: main component drawn. Put shortly: (§1)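 Lung cancer cell lines in 1536-well plates were dosed by pin tool the day after seeding, either with one drug alone or with a fixed anchor-drug dose plus five library-drug doses (not always all listed) in √10 steps. After 5 days, cells were fixed and their nuclei stained in one step (final 0.05% Triton X-100, 1% formaldehyde, 1 ug/ml Hoechst), then counted on 4× images. Relative viability is the nuclei count in treated wells divided by that in vehicle wells. Values are medians of duplicate plates.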

Compound in the assay “Etoposide + Lapatinib”: COc1cc([C@@H]2c3cc4c(cc3[C@@H](O[C@@H]3O[C@@H]5CO[C@@H](C)O[C@H]5[C@H](O)[C@H]3O)[C@H]3COC(=O)[C@H]23)OCO4)cc(OC)c1O [Etoposide] + CS(=O)(=O)CCNCc1ccc(-c2ccc3ncnc(Nc4ccc(OCc5cccc(F)c5)c(Cl)c4)c3c2)o1 [Lapatinib] (partner 2 µM)
Put shortly:
as §1

Compound in the assay “Bleomycin + Decitabine”: CC1=C(N=C(N=C1N)[C@H](CC(=O)N)NC[C@@H](C(=O)N)N)C(=O)N[C@@H]([C@H](C2=CN=CN2)OC3C(C(C(C(O3)CO)O)O)OC4C(C(C(C(O4)CO)O)OC(=O)N)O)C(=O)N[C@H](C)[C@H]([C@H](C)C(=O)N[C@@H]([C@@H](C)O)C(=O)NCCC5=NC(=CS5)C6=NC(=CS6)C(=O)NCCC[S+](C)C)O [Bleomycin] + Nc1ncn([C@H]2C[C@H](O)[C@@H](CO)O2)c(=O)n1 [Decitabine] (partner 2 µM)
Particulars: main component drawn. Put shortly: as §1

Compound in the assay “Etoposide + Alpelisib”: COc1cc([C@@H]2c3cc4c(cc3[C@@H](O[C@@H]3O[C@@H]5CO[C@@H](C)O[C@H]5[C@H](O)[C@H]3O)[C@H]3COC(=O)[C@H]23)OCO4)cc(OC)c1O [Etoposide] + Cc1nc(NC(=O)N2CCC[C@H]2C(N)=O)sc1-c1ccnc(C(C)(C)C(F)(F)F)c1 [Alpelisib] (partner 2 µM)
A digest of the protocol:
as §1

On to LCLC-97TM1, for which the relative viability with Bleomycin + Vorinostat (first compound 0.01 µM) amounted to 0.179; in the assay with Bleomycin + Vorinostat (first compound 0.03162 µM), 0.15; with Bleomycin + Vorinostat (first compound 0.1 µM) it was 0.18; in the assay with Bleomycin + Vorinostat (first compound 0.3162 µM), 0.106; in the assay with Bleomycin + Vorinostat (first compound 1 µM), 0.0733; in the assay with Etoposide + Lapatinib (first compound 0.03162 µM), 1.23. Also, the relative viability with Etoposide + Lapatinib (first compound 0.1 µM) was 0.465; with Etoposide + Lapatinib (first compound 0.3162 µM), 0.23; with Etoposide + Lapatinib (first compound 1 µM), 0.124; with Bleomycin + Decitabine (first compound 0.01 µM), 0.2; with Bleomycin + Decitabine (first compound 0.03162 µM) it was 0.156; in the assay with Bleomycin + Decitabine (first compound 0.1 µM), 0.168. For the same cell line, the relative viability with Bleomycin + Decitabine (first compound 0.3162 µM) was 0.158; with Bleomycin + Decitabine (first compound 1 µM), 0.0988; with Etoposide + Alpelisib (first compound 0.03162 µM), 0.309; with Etoposide + Alpelisib (first compound 0.1 µM), 0.132; with Etoposide + Alpelisib (first compound 0.3162 µM) it was 0.139; with Etoposide + Alpelisib (first compound 1 µM), 0.107.

For LK-2, the relative viability came out at 0.232 with Bleomycin + Vorinostat (first compound 0.01 µM); 0.281 in the assay with Bleomycin + Vorinostat (first compound 0.03162 µM); 0.217 with Bleomycin + Vorinostat (first compound 0.1 µM); 0.209 with Bleomycin + Vorinostat (first compound 0.3162 µM); 0.195 in the assay with Bleomycin + Vorinostat (first compound 1 µM); 0.949 with Etoposide + Lapatinib (first compound 0.01 µM). For the same cell line, the relative viability in the assay with Etoposide + Lapatinib (first compound 0.03162 µM) was found to be 1.23; with Etoposide + Lapatinib (first compound 0.1 µM) it was 0.566; with Etoposide + Lapatinib (first compound 0.3162 µM), 0.555; with Etoposide + Lapatinib (first compound 1 µM) it was 0.217; with Bleomycin + Decitabine (first compound 0.01 µM), 0.22; with Bleomycin + Decitabine (first compound 0.03162 µM), 0.241. The relative viability turned out to be 0.184 with Bleomycin + Decitabine (first compound 0.1 µM); 0.121 with Bleomycin + Decitabine (first compound 0.3162 µM); 0.142 with Bleomycin + Decitabine (first compound 1 µM); 1.01 in the assay with Etoposide + Alpelisib (first compound 0.01 µM); 1.12 in the assay with Etoposide + Alpelisib (first compound 0.03162 µM); 0.71 with Etoposide + Alpelisib (first compound 0.1 µM). Moreover, the relative viability with Etoposide + Alpelisib (first compound 0.3162 µM) came out at 0.764; with Etoposide + Alpelisib (first compound 1 µM), 0.288.

As for LOU-NH91, the relative viability was 0.718 with Bleomycin + Vorinostat (first compound 0.01 µM); 0.544 in the assay with Bleomycin + Vorinostat (first compound 0.03162 µM); 0.508 in the assay with Bleomycin + Vorinostat (first compound 0.1 µM); 0.387 with Bleomycin + Vorinostat (first compound 0.3162 µM); 0.345 in the assay with Bleomycin + Vorinostat (first compound 1 µM); 0.759 with Etoposide + Lapatinib (first compound 0.01 µM). Moreover, the relative viability is 0.788 with Etoposide + Lapatinib (first compound 0.03162 µM); 0.576 with Etoposide + Lapatinib (first compound 0.1 µM); 0.619 with Etoposide + Lapatinib (first compound 0.3162 µM); 0.347 in the assay with Etoposide + Lapatinib (first compound 1 µM); 0.624 with Bleomycin + Decitabine (first compound 0.01 µM); 0.611 with Bleomycin + Decitabine (first compound 0.03162 µM). Also, the relative viability in the assay with Bleomycin + Decitabine (first compound 0.1 µM) was found to be 0.472; with Bleomycin + Decitabine (first compound 0.3162 µM) it was 0.38; with Bleomycin + Decitabine (first compound 1 µM) it was 0.406; with Etoposide + Alpelisib (first compound 0.01 µM) it was 0.7; in the assay with Etoposide + Alpelisib (first compound 0.03162 µM), 0.744; in the assay with Etoposide + Alpelisib (first compound 0.1 µM), 0.593. Further, the relative viability in the assay with Etoposide + Alpelisib (first compound 0.3162 µM) was 0.62; with Etoposide + Alpelisib (first compound 1 µM), 0.469.

On to LU99A, for which the relative viability came to 0.394 with Bleomycin + Vorinostat (first compound 0.01 µM); 0.392 in the assay with Bleomycin + Vorinostat (first compound 0.03162 µM); 0.353 with Bleomycin + Vorinostat (first compound 0.1 µM); 0.207 in the assay with Bleomycin + Vorinostat (first compound 0.3162 µM); 0.125 with Bleomycin + Vorinostat (first compound 1 µM); 1.09 with Etoposide + Lapatinib (first compound 0.01 µM). The relative viability in the assay with Etoposide + Lapatinib (first compound 0.03162 µM) was 1.18; in the assay with Etoposide + Lapatinib (first compound 0.1 µM) it was 0.521; with Etoposide + Lapatinib (first compound 0.3162 µM), 0.347; in the assay with Etoposide + Lapatinib (first compound 1 µM) it was 0.167; with Bleomycin + Decitabine (first compound 0.01 µM) it was 0.77; in the assay with Bleomycin + Decitabine (first compound 0.03162 µM), 0.809. The relative viability was determined as 0.64 in the assay with Bleomycin + Decitabine (first compound 0.1 µM); 0.448 in the assay with Bleomycin + Decitabine (first compound 0.3162 µM); 0.211 with Bleomycin + Decitabine (first compound 1 µM); 0.522 with Etoposide + Alpelisib (first compound 0.01 µM); 0.629 in the assay with Etoposide + Alpelisib (first compound 0.03162 µM); 0.331 with Etoposide + Alpelisib (first compound 0.1 µM). The relative viability in the assay with Etoposide + Alpelisib (first compound 0.3162 µM) stood at 0.24; with Etoposide + Alpelisib (first compound 1 µM), 0.143.

Take LXF-289: the relative viability amounted to 0.723 with Bleomycin + Vorinostat (first compound 0.01 µM); 0.718 with Bleomycin + Vorinostat (first compound 0.03162 µM); 0.614 with Bleomycin + Vorinostat (first compound 0.1 µM); 0.331 with Bleomycin + Vorinostat (first compound 0.3162 µM); 0.167 with Bleomycin + Vorinostat (first compound 1 µM); 0.88 with Etoposide + Lapatinib (first compound 0.01 µM). In addition, the relative viability in the assay with Etoposide + Lapatinib (first compound 0.03162 µM) stood at 0.972; with Etoposide + Lapatinib (first compound 0.1 µM), 0.953; with Etoposide + Lapatinib (first compound 0.3162 µM), 0.601; with Etoposide + Lapatinib (first compound 1 µM), 0.222; with Bleomycin + Decitabine (first compound 0.01 µM), 0.381; in the assay with Bleomycin + Decitabine (first compound 0.03162 µM), 0.407. In addition, the relative viability with Bleomycin + Decitabine (first compound 0.1 µM) worked out at 0.406; with Bleomycin + Decitabine (first compound 0.3162 µM), 0.24; in the assay with Bleomycin + Decitabine (first compound 1 µM), 0.161; in the assay with Etoposide + Alpelisib (first compound 0.01 µM), 1.02; with Etoposide + Alpelisib (first compound 0.03162 µM) it was 1.07; with Etoposide + Alpelisib (first compound 0.1 µM), 1.04. For the same cell line, the relative viability was found to be 0.655 with Etoposide + Alpelisib (first compound 0.3162 µM) and 0.244 with Etoposide + Alpelisib (first compound 1 µM).

On to NCI-H23, for which the relative viability with Bleomycin + Vorinostat (first compound 0.01 µM) came to 0.264; in the assay with Bleomycin + Vorinostat (first compound 0.03162 µM) it was 0.316; in the assay with Bleomycin + Vorinostat (first compound 0.1 µM), 0.219; in the assay with Bleomycin + Vorinostat (first compound 0.3162 µM), 0.123; in the assay with Bleomycin + Vorinostat (first compound 1 µM), 0.127; with Etoposide + Lapatinib (first compound 0.01 µM), 1.11. The relative viability stood at 1.04 with Etoposide + Lapatinib (first compound 0.03162 µM); 0.608 with Etoposide + Lapatinib (first compound 0.1 µM); 0.324 with Etoposide + Lapatinib (first compound 0.3162 µM); 0.215 in the assay with Etoposide + Lapatinib (first compound 1 µM); 0.307 in the assay with Bleomycin + Decitabine (first compound 0.01 µM); 0.265 in the assay with Bleomycin + Decitabine (first compound 0.03162 µM). Also, the relative viability with Bleomycin + Decitabine (first compound 0.1 µM) came out at 0.235; with Bleomycin + Decitabine (first compound 0.3162 µM), 0.184; in the assay with Bleomycin + Decitabine (first compound 1 µM), 0.177; with Etoposide + Alpelisib (first compound 0.01 µM) it was 0.578; in the assay with Etoposide + Alpelisib (first compound 0.03162 µM) it was 0.654; with Etoposide + Alpelisib (first compound 0.1 µM), 0.358. The relative viability with Etoposide + Alpelisib (first compound 0.3162 µM) turned out to be 0.364; with Etoposide + Alpelisib (first compound 1 µM) it was 0.236.

Regarding NCI-H322M, the relative viability in the assay with Bleomycin + Vorinostat (first compound 0.01 µM) is 0.815; with Bleomycin + Vorinostat (first compound 0.03162 µM), 0.888; in the assay with Bleomycin + Vorinostat (first compound 0.1 µM) it was 0.818; with Bleomycin + Vorinostat (first compound 0.3162 µM), 0.577; in the assay with Bleomycin + Vorinostat (first compound 1 µM) it was 0.647; with Etoposide + Lapatinib (first compound 0.01 µM) it was 0.558. Moreover, the relative viability was 0.596 with Etoposide + Lapatinib (first compound 0.03162 µM); 0.55 with Etoposide + Lapatinib (first compound 0.1 µM); 0.586 in the assay with Etoposide + Lapatinib (first compound 0.3162 µM); 0.389 in the assay with Etoposide + Lapatinib (first compound 1 µM); 0.809 with Bleomycin + Decitabine (first compound 0.01 µM); 0.612 with Bleomycin + Decitabine (first compound 0.03162 µM). The relative viability amounted to 0.635 with Bleomycin + Decitabine (first compound 0.1 µM); 0.659 with Bleomycin + Decitabine (first compound 0.3162 µM); 0.48 with Bleomycin + Decitabine (first compound 1 µM); 0.712 in the assay with Etoposide + Alpelisib (first compound 0.01 µM); 0.786 with Etoposide + Alpelisib (first compound 0.03162 µM); 0.663 with Etoposide + Alpelisib (first compound 0.1 µM). In addition, the relative viability in the assay with Etoposide + Alpelisib (first compound 0.3162 µM) came out at 0.658; in the assay with Etoposide + Alpelisib (first compound 1 µM), 0.472.
